# In patent US20250375525A1, “USE OF INDOCYANINE GREEN IN ANTIBACTERIAL OR BACTERICIDAL APPLICATION” (Buddhist Tzu Chi Medical Foundation, priority 2024, published 2025):
# Columns and labels:
# mycoplasma [1] = experiment: DAPI staining of mycoplasma in HEK293 cells after ICG light treatment; assay type: cell-based; conditions: 50 μg/mL ICG + 780 nm laser, 10 minutes
# Procedure: (§1) After HEK293 cells are treated with 50 μg/mL ICG and irradiated with near-infrared light excitation, the distribution of mycoplasma in each group was observed by DAPI staining (the red arrow indicates the expression position of mycoplasma). CTL: control group; −Laser: not excited by laser; +Laser: excited by laser.
# (§2) First, HT1080-1B3 and HEK293 cells were collected through trypsin-EDTA reaction and then seeded into a six-well plate at a cell number of 3×10^5 cells/well. The next day, a working concentration of 50 μg/mL of ICG was added to each well, and the reaction took place in the dark at 37° C. for 1 hour. After the reaction was completed, the cells were irradiated with near-infrared light of 780 nm wavelength for 10 minutes. The supernatant was removed, and the cells were washed twice with PBS. Then, a working concentration of 1 μg/ml DAPI was added to each well, and the reaction took place in the dark at room temperature for 15 minutes. Finally, washed twice with PBS, and the quantitative changes of stained mycoplasma chromosomes were observed under the UV light mode of an inverted fluorescence microscope (Nikon).
# mycoplasma [2] = experiment: DAPI staining of mycoplasma in HT1080-1B3 cells after ICG light treatment; assay type: cell-based; conditions: HT-1080-1B3 cells (overexpress OATP1B3); 50 μg/mL indocyanine green + 780 nm laser, 10 minutes
# Procedure: as §1, with “HT1080-1B3” for “HEK293”
# as §2
# mycoplasma [3] = experiment: RT-PCR of mycoplasma DNA in HT1080-1B3 cells after ICG light treatment; assay type: cell-based; conditions: HT-1080-1B3 cells (overexpress OATP1B3); 50 μg/mL indocyanine green + 780 nm laser, 10 minutes
# Procedure: (§3) (A) After HEK293 cells are treated with 50 μg/mL ICG and irradiated with near-infrared light excitation, the expression level of mycoplasma DNA in each group was observed by RT-PCR and DNA electrophoresis. (B) Results of DNA electrophoresis were quantitated by the Image J software (p-value: *<0.05, **<0.01, and ***<0.001).
# (§4) HT1080-1B3 and HEK293 cells were collected through trypsin-EDTA reaction and then seeded into a six-well plate at a cell number of 3×10^5 cells/well. The next day, a working concentration of 50 μg/mL of ICG was added to each well, and the reaction took place in the dark at 37° C. for 1 hour. After the reaction was completed, the cells were irradiated with near-infrared light of 780 nm wavelength for 10 minutes, the supernatant was removed, and the cells were washed twice with PBS. Then, the cells were collected into a 1.5 mL test tube with trypsin-EDTA, 100 μL KAPA rapid extraction buffer was added to the test tube, and the test tube was placed in a dry bath at 75° C. for 10 minutes and at 95° C. for 5 minutes. Then, DNA samples were prepared according to the operating manual of the e-Myco™ VALID Mycoplasma PCR detection kit, and PCR reaction was performed by PCR instrument (Applied Biosystems) under setting conditions (30 cycles: 95° C./3 minutes, 95° C./15 seconds, 55° C./15 seconds, 72° C./20 seconds and 72° C./1 minute). […]
# HEK293 cells = experiment: MTT analysis of cell survival rate after ICG and near-infrared light irradiation; assay type: cell-based, human; conditions: ICG at different concentrations + near-infrared light (780 nm) irradiation
# From the text: (§5) After administering ICG and near-infrared light (780 nm) excitation and irradiation to HEK293 cells and HT-1080-1B3 cells, observing the cell survival rates of different concentration groups by MTT analysis.
# HT-1080-1B3 cells = experiment: as above; assay type: cell-based; conditions: ICG at different concentrations + near-infrared light (780 nm) irradiation
# From the text: as §5
# mycoplasma [4] = experiment: RT-PCR of mycoplasma DNA in HEK293 cells after ICG light treatment; assay type: cell-based; conditions: 50 μg/mL ICG + 780 nm laser, 10 minutes
# Procedure: as §3, §4
smiles,measurement,setting,value
"CC1(C)C(/C=C/C=C/C=C/C=C2\N(CCCCS(=O)(=O)O)c3ccc4ccccc4c3C2(C)C)=[N+](CCCCS(=O)(=O)[O-])c2ccc3ccccc3c21 [ICG, Indocyanine green]",number of mycoplasma bacteria (DAPI staining),mycoplasma [1],significantly reduced
same,number of mycoplasma bacteria (DAPI staining),mycoplasma [2],disappears
same,"expression level of mycoplasma DNA (RT-PCR, DNA electrophoresis)",mycoplasma [3],no expression level of mycoplasma DNA was observed
same,cell survival rate (MTT analysis),HEK293 cells,no negative impact on cells
same,cell survival rate (MTT analysis),HT-1080-1B3 cells,no negative impact on cells
same,"expression level of mycoplasma DNA (RT-PCR, DNA electrophoresis)",mycoplasma [4],significantly reduce
